From US5288709A, “Erythromycin derivatives” (priority 1991, dated 1994)
Values after ≈ are worked out from the molar mass of the structure shown. Like-named read-outs stand apart in the source and are kept apart here.

Experiments:
Assay in all cases: In-vitro antimicrobial activity primary screen (agar dilution MIC)
Assay type in all cases: cell-based
Acinetobacter SP CMX 669 = test system: Acinetobacter SP CMX 669
Protocol: (§1) The antimicrobial spectra of several of the compounds of the present invention were tested as described below.
(§2) Twelve petri dishes containing successive aqueous dilutions of the test compounds, mixed with 10 mL of sterilized Brain Heart Infusion (BHI) agar (Difco 0418-01-5), were prepared. Each plate was inoculated with 1:100 (or 1:10 for slow growing strains (primarily Micrococcus and Streptococcus) dilutions of up to 32 different microorganisms, using a Steers replicator block. The inoculated plates were incubated at 35 37° C. for 20-24 hours. In addition, a control plate, using BHI agar containing no test compound, was prepared and incubated at the beginning and the end of each test.
(§3) An additional plate containing a compound having known susceptibility patterns for the organisms being tested and belonging to the same antibiotic class as the test compounds was also prepared and incubated as a further control, as well as to provide test-to test comparability.
(§4) After incubation, each plate was read. The MIC (minimum inhibitory concentration) is defined as the lowest concentration of test compound yielding no growth, a slight haze, or sparsely isolated colonies on the inoculum spot as compared to the growth control containing no test compound.

[1] = test system: Enterobacter aerogenes ATCC 13048; conditions: Enterobacter aerogenes ATCC 13048, BHI agar, 20-24 h
Protocol: as §1, §2, §3, §4

[2] = test system: Enterococcus faecium ATCC 8043
Protocol: as §1, §2, §3, §4

Escherichia coli DC-2 = conditions: Escherichia coli DC-2, BHI agar, 20-24 h
Protocol: as §1, §2, §3, §4

Escherichia coli H560 = conditions: Escherichia coli H560, BHI agar, 20-24 h
Protocol: as §1, §2, §3, §4

Escherichia coli JUHL = conditions: Escherichia coli JUHL, BHI agar, 20-24 h
Protocol: as §1, §2, §3, §4

Escherichia coli SS = conditions: BHI agar, 20-24 h
Protocol: as §1, §2, §3, §4

[3] = test system: Klebsiella pneumoniae ATCC 8045; conditions: Klebsiella pneumoniae ATCC 8045, BHI agar, 20-24 h
Protocol: as §1, §2, §3, §4

[4] = test system: Micrococcus luteus ATCC 4698; conditions: BHI agar, 20-24 h
Protocol: as §1, §2, §3, §4

[5] = test system: Micrococcus luteus ATCC 9341; conditions: BHI agar, 20-24 h
Protocol: as §1, §2, §3, §4

[6] = test system: Providencia stuartii CMX 640
Protocol: as §1, §2, §3, §4

[7] = test system: Pseudomonas aeruginosa A5007
Protocol: as §1, §2, §3, §4

[8] = test system: Pseudomonas aeruginosa BMH10; conditions: BHI agar, 20-24 h
Protocol: as §1, §2, §3, §4

[9] = test system: Pseudomonas aeruginosa K799/61; conditions: Pseudomonas aeruginosa K799/61, BHI agar, 20-24 h
Protocol: as §1, §2, §3, §4

[10] = test system: Pseudomonas aeruginosa K799/WT
Protocol: as §1, §2, §3, §4

Pseudomonas cepacia 2961 = conditions: BHI agar, 20-24 h
Protocol: as §1, §2, §3, §4

[11] = test system: Staphylococcus aureus 45 RAR2; conditions: BHI agar, 20-24 h
Protocol: as §1, §2, §3, §4

Staphylococcus aureus 45 = conditions: BHI agar, 20-24 h
Protocol: as §1, §2, §3, §4

[12] = test system: Staphylococcus aureus A5177; conditions: Staphylococcus aureus A5177, BHI agar, 20-24 h
Protocol: as §1, §2, §3, §4

[13] = test system: Staphylococcus aureus ATCC 6538P; conditions: BHI agar, 20-24 h
Protocol: as §1, §2, §3, §4

[14] = test system: Staphylococcus epidermidis 3519; conditions: BHI agar, 20-24 h
Protocol: as §1, §2, §3, §4

[15] = test system: Streptococcus agalactiae CMX 508; conditions: 20-24 h
Protocol: as §1, §2, §3, §4

[16] = test system: Streptococcus bovis A5169; conditions: BHI agar, 20-24 h
Protocol: as §1, §2, §3, §4

[17] = test system: Streptococcus pyrogenes 2548 INDUC; conditions: BHI agar, 20-24 h
Protocol: as §1, §2, §3, §4

[18] = test system: Streptococcus pyrogenes EES61; conditions: BHI agar, 20-24 h
Protocol: as §1, §2, §3, §4

[19] = test system: Staphylococcus aureus CMX 503A; conditions: BHI agar, 20-24 h
Protocol: as §1, §2
as §3, with “comparability. Erythromycin A was used for this purpose.” for “comparability.”
as §4

[20] = test system: Staphylococcus aureus CMX 553; conditions: BHI agar, 20-24 h
Protocol: as §1, §2
as §3, with “comparability. Erythromycin A was used for this purpose.” for “comparability.”
as §4

[21] = test system: Staphylococcus aureus CMX 686B; conditions: BHI agar, 20-24 h
Protocol: as §1, §2
as §3, with “comparability. Erythromycin A was used for this purpose.” for “comparability.”
as §4

Structure (SMILES): CC[C@H]1OC(=O)[C@H](C)[C@@H](O[C@H]2C[C@@](C)(OC)[C@@H](OC(N)=O)[C@H](C)O2)[C@H](C)[C@@H](O[C@@H]2O[C@H](C)C[C@H](N(C)C)[C@H]2O)[C@](C)(O)C[C@@H](C)[C@@H]2O[C@@]1(C)[C@@H](O)[C@H]2C [Example 17, (9S,11S)-4"-O-Aminocarbonyl-9-deoxo-12-deoxy-9,12-epoxyerythromycin A]
- MIC (Acinetobacter SP CMX 669; Acinetobacter, SPCMX669, 24 h): 50 µg/mL (≈ 65.7 µM)
- MIC ([1]; Klebsiella aerogenes, ATCC13048, 24 h): 50 µg/mL (≈ 65.7 µM)
- MIC ([2]; Enterococcus faecium, ATCC8043, 24 h): 0.2 µg/mL (≈ 0.263 µM)
- MIC (Escherichia coli DC-2; Escherichia coli, DC2, 24 h): 50 µg/mL (≈ 65.7 µM)
- MIC (Escherichia coli H560; Escherichia coli, H560, 24 h): 25 µg/mL (≈ 32.9 µM)
- MIC (Escherichia coli JUHL; Escherichia coli, 24 h): 50 µg/mL (≈ 65.7 µM)
- MIC (Escherichia coli SS; Escherichia coli, 24 h): 0.2 µg/mL (≈ 0.263 µM)
- MIC ([3]; Klebsiella pneumoniae, ATCC8045, 24 h): 25 µg/mL (≈ 32.9 µM)
- MIC ([4]; Micrococcus luteus, ATCC4698, 24 h): 0.2 µg/mL (≈ 0.263 µM)
- MIC ([5]; Micrococcus luteus, ATCC9341, 24 h): 0.05 µg/mL (≈ 0.0657 µM)
- MIC ([6]; Providencia stuartii, CMX640, 24 h): > 100 µg/mL
- MIC ([7]; Pseudomonas aeruginosa, A5007, 24 h): > 100 µg/mL
- MIC ([8]; Pseudomonas aeruginosa, BMH10, 24 h): 25 µg/mL (≈ 32.9 µM)
- MIC ([9]; read-out: MIC): 0.78 µg/mL (≈ 1.03 µM)
- MIC ([10]; Pseudomonas aeruginosa, K799/WT, 24 h): 25 µg/mL (≈ 32.9 µM)
- MIC (Pseudomonas cepacia 2961; Burkholderia cepacia, 2961, 24 h): > 100 µg/mL
- MIC ([11]; Staphylococcus aureus, 45RAR2, 24 h): 0.39 µg/mL (≈ 0.513 µM)
- MIC (Staphylococcus aureus 45; Staphylococcus aureus, 45, 24 h): 0.78 µg/mL (≈ 1.03 µM)
- MIC ([12]; read-out: MIC): 12.5 µg/mL (≈ 16.4 µM)
- MIC ([13]; Staphylococcus aureus, ATCC6538P, 24 h): 0.2 µg/mL (≈ 0.263 µM)
- MIC ([14]; read-out: MIC): 0.78 µg/mL (≈ 1.03 µM)
- MIC ([15]; CMX508, BHI agar, read-out: MIC): 0.02 µg/mL (≈ 0.0263 µM)
- MIC ([16]; Streptococcus equinus, A5169, 24 h): 0.05 µg/mL (≈ 0.0657 µM)
- MIC ([17]; read-out: MIC): 1.56 µg/mL (≈ 2.05 µM)
- MIC ([18]; read-out: MIC): 0.02 µg/mL (≈ 0.0263 µM)
- MIC ([19]; Staphylococcus aureus, CMX503A, 24 h, read-out: MIC): 0.39 µg/mL (≈ 0.513 µM)
- MIC ([20]; Staphylococcus aureus, CMX553, 24 h, read-out: MIC): 0.39 µg/mL (≈ 0.513 µM)
- MIC ([21]; CMX686B, read-out: MIC): 0.39 µg/mL (≈ 0.513 µM)

Structure (SMILES): CC[C@H]1OC(=O)[C@H](C)[C@@H](O[C@H]2C[C@@](C)(OC)[C@@H](O)[C@H](C)O2)[C@H](C)[C@@H](O[C@@H]2O[C@H](C)C[C@H](N(C)C)[C@H]2O)[C@](C)(O)C[C@@H](C)[C@@H]2O[C@@]1(C)C(=NO)[C@H]2C [Example 18, (9S)-9-Deoxo-11,12-dideoxy-9,12-epoxy-11-hydroxyiminoerythromycin A]
- MIC (Acinetobacter SP CMX 669; Acinetobacter SP CMX 669, BHI agar, 20-24 h): > 100 microgram/mL
- MIC [1]: > 100 microgram/mL
- MIC ([2]; Enterococcus faecium ATCC 8043, BHI agar, 20-24 h): 0.2 microgram/mL
- MIC (Escherichia coli DC-2): > 100 microgram/mL
- MIC (Escherichia coli H560): > 100 microgram/mL
- MIC (Escherichia coli JUHL): > 100 microgram/mL
- MIC (Escherichia coli SS): 1.56 microgram/mL
- MIC [3]: > 100 microgram/mL
- MIC [4]: 0.1 microgram/mL
- MIC [5]: 0.1 microgram/mL
- MIC ([6]; Providencia stuartii CMX 640, BHI agar, 20-24 h): > 100 microgram/mL
- MIC ([7]; Pseudomonas aeruginosa A5007, BHI agar, 20-24 h): > 100 microgram/mL
- MIC [8]: > 100 microgram/mL
- MIC [9]: 6.2 microgram/mL
- MIC ([10]; Pseudomonas aeruginosa K799/WT, BHI agar, 20-24 h): > 100 microgram/mL
- MIC (Pseudomonas cepacia 2961): > 100 microgram/mL
- MIC [11]: 0.39 microgram/mL
- MIC (Staphylococcus aureus 45): 0.2 microgram/mL
- MIC [12]: 0.78 microgram/mL
- MIC [13]: 0.2 microgram/mL
- MIC [14]: 0.39 microgram/mL
- MIC ([15]; BHI agar): 0.05 microgram/mL
- MIC [16]: 0.1 microgram/mL
- MIC [17]: 1.56 microgram/mL
- MIC [18]: 0.02 microgram/mL
- MIC [19]: 0.2 microgram/mL
- MIC [20]: 0.2 microgram/mL
- MIC [21]: 0.2 microgram/mL
